According to US8552064B2, “Suramin and derivatives thereof as topical microbicide and contraceptive” (Eastern Virginia Medical School, priority 2005, dated 2013):
Converted amounts (≈) assume the structure as drawn. Where two headings read alike, the source gives them in different places.

Assays:
[1] = system: SIV; test: SIV reverse transcriptase assay; format: cell-based
Experimental: Reverse transcriptase activity, a measurement of virus replication, was measured in cell-free supernatants. Tritiated thymidine triphosphate (NEN) (TFP) was resuspended in distilled H2O at 5 Ci/mL. Poly rA and oligo dT were prepared as a stock solution which was kept at −20° C. The RT reaction buffer was prepared fresh on a daily basis and consisted of 125 μL 1.0 M EGTA, 125 μL dH2O, 110 μL 10% […], 50 μL 1.0 M Tris (pH 7.4), 50 μL 1.0 M DTT, and 40 μL 1.0 M MgCl2. These three solutions were mixed together in a ratio of 2 parts TTP, 1 part poly rA:oligo dT, and 1 part reaction buffer. Ten microliters (10 μL) of this reaction mixture was placed in a round bottom microtiter plate and 15 μL of virus containing supernatant added and mixed. The plate was incubated at 37° C. for 60 minutes. Following reaction, the reaction volume was spotted onto pieces of DE81 paper, washed 5 times for 5 minutes each in a 5% sodium phosphate buffer, 2 times for 1 minute each in distilled water, 2 times for 1 minute each in 70% ethanol, and then dried. Opti-Fluor 0 was added to each sample and incorporated radioactivity quantitated utilizing a Wallac 1450 Microbetaplus liquid scintillation counter. The results of this assay are provided herein.

[2] = system: human sperm acrosome reaction; test: Acrosome reaction ionophore challenge test (ARIC); format: cell-based
Description: The acrosome reaction ionophore challenge test (ARIC) was used, as described in Cummins J. M., et al., J. Androl., 12: 98-103 (1991), to measure the proportion of spermatozoa that respond to a calcium ionophore (typically, A23187), developing an acrosome reaction. More specifically, this test was used to determine whether suramin sodium affects the ionophore-induced acrosome reaction of the sperm, therefore altering the capacity of sperm to penetrate an egg. Results are expressed in percent inhibition of control (untreated sperm) acrosome reactions. 2.

[3] = Pharmacokinetics in female rats, intravenous and intravaginal; format: in vivo, rat; details: for Vd: read-out: Vdss
Experimental: Female rats (n=6) were administered with 30 mg of compound per kg in a single I.V. dose in saline or intravaginally, BID, for 5 days, formulated in KY jelly. The selected single dose represented 10 times the estimated human dose (250 mg). […] Following intravenous administration, relatively high concentrations of suramin sodium (mean value=563 μg/mL) were measured in plasma at 1 hour (first time-point) following the onset of dosing. […] The mean volume of distribution was calculated at 147 mL/kg.

[4] = system: HIV-1 IIIB; test: Viral entry inhibition, cell-free HIV-1 IIIB, CD4/coreceptor expressing HeLa cells; format: cell-based; details: Human immunodeficiency virus 1, IIIB
[5] = system: HSV-2; test: HSV plaque assay, HSV-2; format: cell-based, HSV (type 2 strain 333)
Experimental: Evaluation of anti-HSV activity of suramin was based on the method described by Herold et al., J. Virol., 70: 3461-3469 (1996). The compound was serially diluted (1000 μg/ml to 1.0 μg/ml) in phosphate-buffered saline (PBS), and each dilution was mixed with each of two serial dilutions (10^−5 and 10^−6) HSV (type 2 strain 333). Working viral titers were […]. Samples (1 ml) of each mixture were plated in duplicate on washed and drained confluent monolayers of CaSki cells (a human cervical epithelial cell line, obtained from the American Type Culture Collection, Rockville, Md.) on the bottoms of 25 cm^2 flasks. Initial titer (indicated in the control cultures with no added test agent) in each culture was given as pfu/ml. The flasks were incubated for 2 hours, after which the medium (containing virus and test compound) was removed and the cells were washed with PBS. Cells were cultured for 3 days in medium 199, supplemented with 1% serum and 0.5% methyl cellulose that contained anti-HSV antibodies to prevent the formation of secondary plaques. Cells were stained with Giemsa for the counting of viral plaques by phase contrast microscopy. The viral titer was inferred from the number of plaques, after correction for dilutions. Values were corrected to a control titer 5×10^8 pfu/ml. Data were expressed as viral titer and as the percentage of plaques that are counted in control cell cultures (not exposed to test agent). […] The concentration of the compound that was required to reduce the viral titer by 50% (IC50) was estimated with curve-fitting software (TableCurve 2D, version 3.02) from plots of plaque-forming units (pfu) per ml as a function of concentration of the compound.

[6] = target: sheep testicular hyaluronidase (Ovis aries, UniProt A0ACI6NV18); test: Hyaluronic acid hydrolysis assay; format: biochemical
Description: A hyaluronic acid hydrolysis assay was used to assess the hyaluronidase inhibition properties of suramin sodium. Hyaluronidase is a critical sperm enzyme involved in cumulus penetration. Inhibition of this enzyme renders sperm incapable of transversing the egg vestments, thus impeding sperm-oocyte interaction and, ultimately, fertilization.
Hyaluronidase activity was quantitatively determined by measuring the extent of hyaluronic acid hydrolysis (i.e., the concentration of N-acetylglucosamine-reactive material formed from enzyme activity). Reaction mixtures containing the following were prepared: test compound (variable concentrations of suramin sodium); 0.1 M sodium acetate; 0.15 M sodium chloride; pH adjusted to 5.5; 7.2 units sheep testicular hyaluronidase (Sigma, Type III; H-2251) contained in an acetate buffer; 0.3 mg/ml hyaluronic acid (Sigma, from bovine vitreous humor; H-7630). The enzyme was preincubated with the test agent (1 mg/ml for screening purposes) for 10 minutes before starting the reaction by the addition of hyaluronic acid. The enzyme reaction was determined using the method of Aronson and Davidson (J. Biol. Chem. 241 437-40, 1967). […] The reaction product is determined calorimetrically with […] (Reissig et al., J. Biol. Chem. 217 959-966, […]) by measuring the absorbance at 545 nm.

[7] = female, rat, plasma, IV: single dose 30 mg/kg
[8] = female, rat, plasma, IVag: 30 mg/kg BID for 5 days

Sequence of sheep testicular hyaluronidase (A0ACI6NV18 entry or part of it): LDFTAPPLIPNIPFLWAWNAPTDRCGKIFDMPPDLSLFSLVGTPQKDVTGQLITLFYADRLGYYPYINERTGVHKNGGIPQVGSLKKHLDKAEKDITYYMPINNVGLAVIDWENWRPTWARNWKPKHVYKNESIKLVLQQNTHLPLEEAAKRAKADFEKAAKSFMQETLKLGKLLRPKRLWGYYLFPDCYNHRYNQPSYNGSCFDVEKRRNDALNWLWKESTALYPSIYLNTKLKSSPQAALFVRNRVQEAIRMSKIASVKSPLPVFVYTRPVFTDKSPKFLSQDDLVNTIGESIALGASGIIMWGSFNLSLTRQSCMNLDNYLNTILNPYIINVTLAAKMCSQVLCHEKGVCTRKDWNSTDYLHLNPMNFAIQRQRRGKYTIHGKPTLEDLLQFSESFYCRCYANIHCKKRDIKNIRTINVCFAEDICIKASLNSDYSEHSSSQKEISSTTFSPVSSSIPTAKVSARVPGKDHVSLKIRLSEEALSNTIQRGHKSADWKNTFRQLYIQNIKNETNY

Cc1ccc(C(=O)Nc2ccc(S(=O)(=O)O)c3cc(S(=O)(=O)O)cc(S(=O)(=O)O)c23)cc1NC(=O)c1cccc(NC(=O)Nc2cccc(C(=O)Nc3cc(C(=O)Nc4ccc(S(=O)(=O)O)c5cc(S(=O)(=O)O)cc(S(=O)(=O)O)c45)ccc3C)c2)c1 [Suramin, 8,8′-(carbonylbis(imino-3,1-phenylenecarbonylimino(4-methyl-3,1-phenylene)carbonylimino))bis-1,3,5-naphthalene trisulfonic acid]
Potency, SIV Reverse transcriptase [1]: High
IC50 ([1]; Simian immunodeficiency virus): 4 µg/mL (≈ 3.08 µM)
effect on spontaneous and ionophore-induced acrosome reaction [2]: neither to stimulate spontaneous acrosome reaction (acrosomal loss) nor to block the Ca^2+ ionophore-induced reaction
Percentage of acrosome-reacted Sperm ([2]; Calcium-ionophore treatment (5 μM A23187): +): 31.4 ± 15.1%
Percentage of acrosome-reacted Sperm ([2]; Calcium-ionophore treatment (5 μM A23187): −): 5.28 ± 1.93%
Potency, Acrosome Reaction (ARIC) ([2]; induction or inhibition of acrosome reaction): None
clinical signs ([3]; 30 mg/kg I.V. or intravaginally BID 5 days): No clinical signs were observed
t½ ([3]; IV: single dose 30 mg/kg, 30 mg/kg): 68.6 h
Kel ([3]; IV: single intravenous dose of 30 mg/kg, female rats, plasma): 0.0102
t½ ([3]; IVag: 30 mg/kg BID for 5 days, listed as Suramin sodium): 132 h
Kel ([3]; IVag: intravaginal 30 mg/kg BID for 5 days in KY jelly): 0.005
bioavailability after intravaginal administration ([3]; calculated from the total dose (90 mg) administered intravaginally): < 1%
histological lesions in vagina, lungs, liver and kidneys ([3]; female rats receiving the intravenous solution): No histological lesions were observed
AUC ([3]; female, rat, plasma, 30 mg/kg, IVag: 30 mg/kg BID for 5 days, zero to 144 hr post dose, read-out: AUC(tf)): 1170 µg·h/mL
AUC ([3]; female, rat, plasma, 30 mg/kg, IVag: 30 mg/kg BID for 5 days, zero to infinity, read-out: AUC(I)): 2280 µg·h/mL
half-life ([3]; female, rat, plasma, 30 mg/kg, intravaginal administration, read-out: mean half-life (converted)): ~132 h
bioavailability ([3]; female, rat, plasma, 90 mg, calculated from the total dose (90 mg) administered intravaginally, read-out: bioavailability after intravaginal administration): 0.8%
half-life ([3]; female, rat, plasma, iv, 30 mg/kg, IV: single dose 30 mg/kg, read-out: t½ (converted)): 68.5 h
AUC ([3]; female, rat, plasma, iv, 30 mg/kg, IV: single dose 30 mg/kg, zero to 144 hr post dose, read-out: AUC(tf)): 13900 µg·h/mL
AUC ([3]; female, rat, plasma, iv, 30 mg/kg, IV: single dose 30 mg/kg, zero to infinity, read-out: AUC(I)): 17300 µg·h/mL
clearance [3, 7]: 0.0292 mL/min
Vd [3, 7]: 0.147 L/kg
Cmax ([3]; female, rat, plasma, IV: single intravenous dose of 30 mg/kg, at 1 hour): 563 µg/mL
clearance [3, 8]: 0.0001 mL/min
Cmax ([3]; female, rat, plasma, IVag: 30 mg/kg BID for 5 days, at 3.5 hours following the last dose): 17.7 µg/mL
Vd [3, 8]: 0.132 L/kg
IC50 ([4]; HeLa, 2 h-incubation, read-out: IC50 against IIIB, viral entry assay): 18.5 µg/mL (≈ 14.3 µM)
IC50 ([4]; CD4/coreceptor expressing HeLa cells, incubation 2 hours, read-out: IC50, Cell-Free Strains IIIB): 18.5 µg/mL (≈ 14.3 µM)
Potency, HSV-2 Plaque [5]: High
inhibition at 100 µg/mL ([5]; Human alphaherpesvirus 2, 100 μg/mL, read-out: inhibition of viral infectivity, plaque assay): 100%
IC50 ([5]; Human alphaherpesvirus 2, read-out: IC50 against HSV-2): 1 µg/mL (≈ 0.771 µM)
Potency, Hyaluronidase (Hyaluronic Acid Hydrolysis) [6]: High
